Measured values from patent publication US6110955A, “Metabolically stabilized oxyalkylene esters and uses thereof” (Beacon Laboratories, Inc., priority 1997, dated 2000).

Key:
[1] = system: IMR-32; experiment: Clonogenicity in soft agar (growth inhibition); assay type: cell-based, human; settings: Homo sapiens, read-out: clones relative to media-treated control cultures
Procedure: (§1) Inhibition of cancer cell growth in agar culture--clonogenicity was tested using cell lines as follows:
(§2) Cells were harvested, washed in complete media, and counted.
(§3) After overnight culture, AB or α-methyl-4-(2-methylpropyl)-benzeneacetyloxymethyl butyrate was added at the indicated concentration. The control cells received media alone.

[2] = system: NBAS-5; experiment: Clonogenicity in soft agar (growth inhibition); assay type: cell-based, human; settings: Homo sapiens
Procedure: as §1, §2, §3

[3] = system: NBL-S; experiment: Clonogenicity in soft agar (growth inhibition); assay type: cell-based, human; settings: Homo sapiens
Procedure: as §1, §2, §3

[4] = system: SK-N-SH; experiment: Clonogenicity in soft agar (growth inhibition); assay type: cell-based, human; settings: Homo sapiens, read-out: clones relative to media-treated control cultures
Procedure: as §1, §2, §3

[5] = system: human neuroblastoma cell lines; experiment: Clonogenicity across the neuroblastoma cell lines (summary); assay type: cell-based
Procedure: as §1, §2, §3

[6] = system: CFPAC; experiment: Inhibition of cancer cell growth, sulforhodamine B (SRB) method; assay type: cell-based; settings: Homo sapiens
Procedure: (§4) Inhibition of cancer cell growth was measured by the sulforhodamine B (SRB) method as described by Monks et al., J. Nat. Canc. Inst., (1991), 83: 757-766, incorporated herein in its entirety. The SRB assay is recognized by the National Institute for Cancer (NCI) as a reliable screen for anticancer drugs and is used by the NCI for this purpose. […] (FIGS. 3A-3D).

[7] = system: LOX IMVI; experiment: as above; assay type: cell-based; settings: Homo sapiens
Procedure: as §4

[8] = system: MCF7; experiment: as above; assay type: cell-based; settings: Homo sapiens
Procedure: as §4

[9] = system: OVCAR-5; experiment: as above; assay type: cell-based; settings: Homo sapiens
Procedure: as §4

[10] = system: β-globin disorders (β-thalassemia and sickle-cell anemia); settings: β-thalassemia and sickle-cell anemia patients; cited from earlier work

Work on `CCCC(=O)O` [AB, arginine butyrate, reference compound] yielded an activity at 100 µM ([1]; IMR-32, 100 μM) of 108%, an activity at 250 µM ([1]; IMR-32, 250 μM) of 104% and an activity at 500 µM ([1]; IMR-32, 500 μM) of 69 ± 7%. For the same compound, the activity at 1000 µM ([1]; IMR-32, 1000 μM) was 49%, the activity at 2000 µM ([1]; IMR-32, 2000 μM) was 21% and the IC50 ([2]; NBAS-5) was 833 µM. The activity at 100 µM ([2]; NBAS-5, 100 μM, read-out: clones relative to media-treated control cultures) was 85 ± 1%, the activity at 250 µM ([2]; NBAS-5, 250 μM, read-out: clones relative to media-treated control cultures) was 78 ± 2% and the activity at 500 µM ([2]; NBAS-5, 500 μM, read-out: clones relative to media-treated control cultures) was 68 ± 2%. The activity at 1000 µM ([2]; NBAS-5, 1000 μM, read-out: clones relative to media-treated control cultures) was 53%, the activity at 2000 µM ([2]; NBAS-5, 2000 μM, read-out: clones relative to media-treated control cultures) was 25% and the IC50 [3] was 701 µM. The IC90 [3] was 2000 µM, the activity at 100 µM ([4]; 100 μM) was 99 ± 1% and the activity at 250 µM ([4]; 250 μM) was 81 ± 1%. It also gave an activity at 500 µM ([4]; 500 μM) of 75 ± 9%, an activity at 1000 µM ([4]; 1000 μM) of 54 ± 2% and an activity at 2000 µM ([4]; 2000 μM) of 24 ± 1%. For the same compound, the “inhibition of clonogenicity (in words)” value [5] was “dose-dependent manner”, the inhibition at 31.25 pM ([6]; dosage 0.03125 nM) was 6.6% and the inhibition at 62.5 pM ([6]; dosage 0.06250 nM) was 4.8%. The inhibition at 0.000125 µM ([6]; dosage 0.12500 nM) was 11.3%, the inhibition at 0.00025 µM ([6]; dosage 0.25000 nM) was 1% and the inhibition at 0.0005 µM ([6]; dosage 0.50000 nM) was 1.5%. It also gave an inhibition at 0.001 µM ([6]; dosage 1.00000 nM) of 4.7%, an inhibition at 0.002 µM ([6]; dosage 2.00000 nM) of 12.8% and an inhibition at 0.004 µM ([6]; dosage 4.00000 nM) of 16.6%. For the same compound, the inhibition at 31.25 pM ([7]; dosage 0.03125 nM) was 0%, the inhibition at 62.5 pM ([7]; dosage 0.06250 nM) was 1.4% and the inhibition at 0.000125 µM ([7]; dosage 0.12500 nM) was 1.5%. It also gave an inhibition at 0.00025 µM ([7]; dosage 0.25000 nM) of 3.1%, an inhibition at 0.0005 µM ([7]; dosage 0.50000 nM) of 1.8% and an inhibition at 0.001 µM ([7]; dosage 1.00000 nM) of 11.8%. The inhibition at 0.002 µM ([7]; dosage 2.00000 nM) was 10.7%, the inhibition at 0.004 µM ([7]; dosage 4.00000 nM) was 23.3% and the inhibition at 31.25 pM ([8]; MCF7, dosage 0.03125 nM) was 0.3%. It also gave an inhibition at 62.5 pM ([8]; MCF7, dosage 0.06250 nM) of 0.2%, an inhibition at 0.000125 µM ([8]; MCF7, dosage 0.12500 nM) of 0% and an inhibition at 0.00025 µM ([8]; MCF7, dosage 0.25000 nM) of 0.1%. The inhibition at 0.0005 µM ([8]; MCF7, dosage 0.50000 nM) was 0%, the inhibition at 0.001 µM ([8]; MCF7, dosage 1.00000 nM) was 1.2% and the inhibition at 0.002 µM ([8]; MCF7, dosage 2.00000 nM) was 1.8%. It also gave an inhibition at 0.004 µM ([8]; MCF7, dosage 4.00000 nM) of 2.2%, an inhibition at 31.25 pM ([9]; OVCAR-5, dosage 0.03125 nM) of 0% and an inhibition at 62.5 pM ([9]; OVCAR-5, dosage 0.06250 nM) of 0.1%. The inhibition at 0.000125 µM ([9]; OVCAR-5, dosage 0.12500 nM) was 0.5%, the inhibition at 0.00025 µM ([9]; OVCAR-5, dosage 0.25000 nM) was 0.3% and the inhibition at 0.0005 µM ([9]; OVCAR-5, dosage 0.50000 nM) was 1.3%. It also gave an inhibition at 0.001 µM ([9]; OVCAR-5, dosage 1.00000 nM) of 2.5%, an inhibition at 0.002 µM ([9]; OVCAR-5, dosage 2.00000 nM) of 6.6% and an inhibition at 0.004 µM ([9]; OVCAR-5, dosage 4.00000 nM) of 29.3%. For the same compound, the reported side effects [10] was “hypokalemia, headache, nausea and vomiting”.
